Test results: article PMC3598812, “Evaluation of Anti-Hyperalgesic and Analgesic Effects of Two Benzodiazepines in Human Experimental Pain: A Randomized Placebo-Controlled Study” (PLoS ONE, 2013)

Experiment: Pharmacokinetics of clobazam in plasma (LC-MS/MS)
Type: in vivo
Details: human, po, 20 mg, clobazam 20 mg oral, mean (SD)
[1] = subgroup (n = 8) with peak plasma level below 180 minutes and at least 200 µg/ml

## CN1C(=O)CC(=O)N(c2ccccc2)c2cc(Cl)ccc21 [Clobazam]
All volunteers (n = 16)
  AUC: 5460 ng·h/mL
  Cmax: 370 ng/mL
  Tmax: 2.28 h
  half-life: 19 h
[1]
  AUC: 6160 ng·h/mL
  Cmax: 470 ng/mL
  Tmax: 1.64 h
  half-life: 17.5 h
